# Measured values from US10653667B2, “Drug for preventing, treating or preventing metastasis of giant cell tumor that occurs in bone or soft parts, chondrosarcoma, or osteosarcoma, local injection for arterial embolization, and artificial bone” (NIPPON CHEMIPHAR CO., LTD, priority 2013, dated 2020).
# Values joined by “and” are separate entries in the source; they are usually repeats but may differ in a detail not shown here. Equal entries are not always repeated. “Also recorded” adds a separate entry of the source.
# Experiments:
# [1] = system: cultured cells of pigmented villonodular synovitis (PVNS); test: Suppression of cell proliferation of PVNS cultured cells (CCK-8); type: cell-based, human; details: PVNS cells; drug at various concentrations; CCK-8 24 hours after addition
# [2] = system: GCTB cultured cells of the case 1; test: Tunel assay and caspase 3 staining of GCTB cultured cells (apoptosis); type: cell-based, human; details: zaltoprofen 100 and 200 μM; 8 hours and 24 hours
# Experimental: (§1) Further, the aforementioned GCTB cultured cells of the case 1 mentioned above were cultured on chamber cover slide glass, and zaltoprofen was added at different concentrations (100, and 200 μM) 24 hours afterward. Then, 8 hours and 24 hours afterward, the cells were fixed with 4% paraformaldehyde, staining with caspase 3 and Tunel assay were performed, and presence or absence of apoptosis was analyzed. In the Tunel assay, fragmented DNAs produced in the process of apoptosis were detected by the TdT-mediated dUTP nick end labeling method (TUNEL). Observation was performed with a fluorescence microscope (BZ-9000) of Keyence, and positive images for each concentration were quantitatively observed (FIGS. 2 to 5).
# [3] = system: GCTB cultured cells (case 1, case 2); test: Cell proliferation of GCTB cultured cells in the presence or absence of PPARγ siRNA; type: cell-based, human; details: 200 μM zaltoprofen or 60 μM troglitazone; 72 hours
# [4] = system: H-EMC-SS cells; test: Proliferation of H-EMC-SS cells cultured beforehand with PPARγ siRNA or control siRNA; type: cell-based, human; details: 400 μM zaltoprofen
# Experimental: Cells of the human chondrosarcoma cell line, H-EMC-SS, were cultured in the same manner as that of Example 1 until they became sub-confluent, PPARγ siRNA (Dharmacon, catalog number M-003436-02-0005) that selectively suppresses expression of PPARγ, or a control siRNA (Dharmacon, catalog number D-001206-14-05) was added to the cells at a final concentration of 100 nM, and the cells were cultured for 48 hours. Then, 400 μM zaltoprofen was added to the cells, color development was performed with Cell Counting Kit-8 (CCK-8, Dojindo) 24 hours thereafter, absorbance was measured at 450 nm further 3 hours thereafter, and the absorbance observed with the pretreatment with PPARγ siRNA was compared with the absorbance observed with the pretreatment with the control siRNA (FIG. 70).
# [5] = system: pigmented villonodular synovitis (PVNS); test: Curative effect of zaltoprofen (Soleton Tablet) on PVNS patients; type: in vivo, human
# Experimental: Soleton Tablet 80 (generic name: zaltoprofen, 80 mg, Nippon Chemiphar) was administered to a patient with giant cell tumor of bone (GCTB), patient with giant cell tumor of tendon sheath (GCTT), or patient with pigmented villonodular synovitis (PVNS) at a dose of 3 tablets per day (one tablet was administered in the morning, at noon, and in the evening), and the tumor size was evaluated by MRI every several months.
# PVNS patients were administered with 3 tablets per day (one tablet was administered in the morning, at noon, and in the evening) of Soleton Tablet 80 (generic name; zaltoprofen, 80 mg, Nippon Chemiphar). Four weeks after the start of the administration, the tumor size was evaluated by imaging based on simple Roentgen contrast method, X-ray CT, and MRI (nuclear magnetic resonance imaging). Then, the tumors were excised from patients for whom surgical operation was possible, administration of zaltoprofen was continued at a dose of 240 mg per day (one 80 mg tablet was administered at the time of breakfast, lunch, and supper), and the tumor size was evaluated by imaging based on simple Roentgen contrast method, X-ray CT, and MRI (nuclear magnetic resonance imaging) every 16 weeks. Also for patients for whom surgical operation was difficult, administration of 240 mg zaltoprofen per day (one 80 mg tablet was administered at the time of breakfast, lunch, and supper) was continued, and the tumor size was evaluated by imaging based on simple Roentgen contrast method, X-ray CT, and MRI (nuclear magnetic resonance imaging) every 8 weeks.
# [6] = system: GCTB cultured cells (case 1, case 2; GCT-1, GCT-2); test: Suppression of cell proliferation of GCTB cultured cells (Cell Counting Kit-8, WST assay); type: cell-based, human; details: drug at various concentrations, CCK-8 24 hours after addition
# Experimental: Tissue Int., 75:71-77), repeatedly subcultured until there were only spindle-shaped cells, which state was gradually attained from the state that there were also multinucleated giant cells observed in an early stage, and then used for the following analysis. […] Zaltoprofen was added as a solution in DMSO (dimethyl sulfoxide) prepared at a concentration 1000 times higher than the final concentration, and the solution was added in a volume of 0.1% of the volume of the medium. The same shall apply to the other drugs used in the following examples. […]
# [7] = system: GCTB cultured cells of the case 1; details: GCTB derived from a patient; inventors' earlier reports; cited from earlier work
# [8] = system: SW1353 cells; test: Cell invasion of SW1353 cells (Matrigel Invasion Chamber); type: cell-based, human
# Description: For the analysis of cell invasion, Matrigel™ Invasion Chamber (BD Bioscience, catalog number 354480), which uses Matrigel as the matrix, was used. […] FIGS. 76 and 77 show microphotographs of invaded cells fixed by immersion into a 4% paraformaldehyde solution, and stained with hematoxylin (magnification is 200 times). From the microphotographs of FIGS. 76 and 77, the patterns of the invaded cells can be understood.
# [9] = system: PPARγ expression in H-EMC-SS cells; details: inventors' earlier reports; cited from earlier work
# [10] = system: PPARγ expression in cells of pigmented villonodular synovitis (PVNS); test: PPARγ immunostaining of PVNS cells; type: cell-based, human; details: zaltoprofen 400 μM or troglitazone 200 μM
# [11] = system: cultured cells of human pigmented villonodular synovitis (PVNS); test: Tunel assay and caspase 3 staining of PVNS cultured cells; type: cell-based; details: zaltoprofen 400 μM or troglitazone 200 μM, compared with control
# Experimental: as §1
# (§2) Further, in the same manner as that of Example 1, the cultured cells of human giant cell tumor of tendon sheath (GCTT) and the cultured cells of human pigmented villonodular synovitis (PVNS) were subjected to staining with caspase 3 and Tunel assay, and presence or absence of apoptosis was analyzed (FIGS. 18 to 25).
# [12] = system: cultured cells of human giant cell tumor of tendon sheath (GCTT); test: Tunel assay and caspase 3 staining of GCTT cultured cells; type: cell-based; details: zaltoprofen 400 μM or troglitazone 200 μM, compared with control
# Experimental: as §1, §2
# [13] = recurrence of PVNS in the right knee (person; case b), after two months
structure (smiles),measurement,setting,value
CC(C(=O)O)c1ccc2c(c1)CC(=O)c1ccccc1S2 (centres unmarked) [zaltoprofen],suppression of cell proliferation (absorbance at 450 nm),[1],cell proliferation was suppressed
same,Tunel-positive ratio,[2],concentration and administration time-dependent increases
same,caspase 3-positive ratio,[2],concentration and administration time-dependent increases
same,cell proliferation-inhibiting effect in the PPARγ siRNA addition group,[3],significantly suppressed
same,suppression of proliferation of H-EMC-SS cells,[4]; 24 hours,suppressed proliferation
same,cell proliferation-suppressing action with PPARγ siRNA,"[4]; H-EMC-SS, PPARγ siRNA 100 nM 48 hours",completely eliminated
same,diameter of PVNS after taking zaltoprofen,"[5]; PVNS case a, shoulder joint, about 50 weeks, 27.7 mm before",7.9 mm
same,diameter (major axis) of PVNS after taking zaltoprofen,"[5]; PVNS case c, right knee joint, about 35 weeks, 59.5 mm before",47.2 mm and 48.0 mm
same,KPS score after taking zaltoprofen,"[5]; PVNS cases a and b, score 70 before",100
same,change of PVNS,"[5]; PVNS cases a, b, c, d, e, and f, no treatment except zaltoprofen",shrank
same,KPS score after taking zaltoprofen,"[5]; PVNS cases c and d, score 80 before",90
same,new metastasis during the taking of zaltoprofen,[5]; PVNS patients,any new metastasis of PVNS was not observed
same,recurrence during the taking of zaltoprofen after ablative operation,[5]; PVNS patients subjected to ablative operation,no recurrence of PVNS could be confirmed
same,shrinkage of PVNS in patients who took zaltoprofen,[5]; all the patients,shrinkage of PVNS could be confirmed in all the patients
same,number of cases judged to be partial response (PR),"[5]; among 11 PVNS cases for which the response rate was determined, 240 mg per day",one
same,cases in which the KPS score worsened,[5]; cases of PVNS who took zaltoprofen,no case in which the KPS score worsened
same,response judgement of all the PVNS patients who took zaltoprofen,"[5]; human, in vivo",partial response (PR) or stable disease (SD)
same,MRI imaging effect,"[5]; recurrence of PVNS in the right knee (case i), 3 tablets per day, after three months",attenuation of the MRI imaging effect
same,pain and knee-joint excursion,"[5]; recurrence of PVNS in the right knee (case i), after three months",improvement was observed
same,pain,[5]; [13],improvement of pain
same,tumor size by MRI,[5]; [13],shrinkage of tumor
same,"suppression of cell proliferation (live cell count, absorbance at 450 nm)",[6],concentration-dependent suppression of the cell proliferation; also recorded: suppressed proliferation
same,differentiation of the cells into fat cells,[7],induced differentiation of the cells into fat cells
same,cell injury seen in microphotographs of invaded cells,"[8]; 100 μM troglitazone, 50 μM celecoxib or 400 μM zaltoprofen, cells only sparsely existed and rolled into small balls",cell injury was realized
same,cell invasion remaining (suppressed to),"[8]; 400 μM zaltoprofen, 24 hours",lower than 20%
same,suppression of cell invasion of SW1353 cells,"[8]; all set concentrations, concentration-dependent, 24 hours",suppressed the cell invasion
same,expression of PPARγ in H-EMC-SS cells,[9],promoted expression of PPARγ
same,expression of PPARγ (PPARγ-positive images),[10],expression of PPARγ was successfully observed
same,Tunel-positive ratio,[11],increased
same,caspase 3-positive ratio,[11],increased
same,Tunel-positive ratio,[12],increased
same,caspase 3-positive ratio,[12],increased
